The test system of the series is CCRIS mutagenicity, Ames/micronucleus/aberration tests. In words: CCRIS mutagenicity studies.
Setting [1] is: Test System: AMES SALMONELLA TYPHIMURIUM, Strain/Indicator: TA97, Metabolic Activation: NONE, Method: PREINCUBATION
Where [2] appears, read: Test System: AMES SALMONELLA TYPHIMURIUM, Strain/Indicator: TA98, Metabolic Activation: NONE, Method: PREINCUBATION
The mark [3] stands for this setting: Test System: AMES SALMONELLA TYPHIMURIUM, Strain/Indicator: TA100, Metabolic Activation: HAMSTER, LIVER, S-9, AROCLOR 1254 (10%), Method: PREINCUBATION
The mark [4] stands for this setting: Test System: AMES SALMONELLA TYPHIMURIUM, Strain/Indicator: TA100, Metabolic Activation: HAMSTER, LIVER, S-9, AROCLOR 1254 (30%), Method: PREINCUBATION
[5] abbreviates: Test System: AMES SALMONELLA TYPHIMURIUM, Strain/Indicator: TA100, Metabolic Activation: NONE, Method: PREINCUBATION
Setting [6] is: Test System: AMES SALMONELLA TYPHIMURIUM, Strain/Indicator: TA100, Metabolic Activation: RAT, LIVER, S-9, AROCLOR 1254 (10%), Method: PREINCUBATION
Setting [7] is: Test System: AMES SALMONELLA TYPHIMURIUM, Strain/Indicator: TA100, Metabolic Activation: RAT, LIVER, S-9, AROCLOR 1254 (30%), Method: PREINCUBATION
The mark [8] stands for this setting: Test System: AMES SALMONELLA TYPHIMURIUM, Strain/Indicator: TA1535, Metabolic Activation: HAMSTER, LIVER, S-9, AROCLOR 1254 (10 OR 30%), Method: PREINCUBATION
The mark [9] stands for this setting: Test System: AMES SALMONELLA TYPHIMURIUM, Strain/Indicator: TA1535, Metabolic Activation: NONE, Method: PREINCUBATION
[10] abbreviates: Test System: AMES SALMONELLA TYPHIMURIUM, Strain/Indicator: TA1535, Metabolic Activation: RAT, LIVER, S-9, AROCLOR 1254 (10 OR 30%), Method: PREINCUBATION
Where [11] appears, read: Test System: AMES SALMONELLA TYPHIMURIUM, Strain/Indicator: TA98, Metabolic Activation: NONE, Method: STANDARD PLATE.
Where [12] appears, read: Test System: AMES SALMONELLA TYPHIMURIUM, Strain/Indicator: TA100, Metabolic Activation: NONE, Method: STANDARD PLATE.

Our source for the mutagenic call values is PubChem BioAssay AID1259407 (Chemical Carcinogenesis Research Information System (CCRIS), 2018).

Molecules are shown by their SMILES. Calls of active or inactive are those of the source. The rule behind the calls is not given here.

Consider `C=C1C/C(=C/C)C(=O)O[C@@H]2CCN3CC=C(COC(=O)[C@@]1(O)CO)[C@H]23`, for which the mutagenic call is “inactive; negative” (End Point: IN VITRO CHROMOSOMAL ABERRATIONS, Test System: CHINESE HAMSTER OVARY CELLS, Metabolic Activation: NONE); “active; positive; very high frequencies of aberrations were induced in the 25 cells coun” (End Point: IN VITRO CHROMOSOMAL ABERRATIONS, Test System: CHINESE HAMSTER OVARY CELLS, Metabolic Activation: RAT, LIVER, S-9, AROCLOR 1254); “inactive; negative” (Test System: AMES SALMONELLA TYPHIMURIUM, Strain/Indicator: TA97, Metabolic Activation: HAMSTER, LIVER, S-9, AROCLOR 1254 (10 OR 30%), Method: PREINCUBATION); “inactive; negative” under setting [1]; “inactive; negative” (Test System: AMES SALMONELLA TYPHIMURIUM, Strain/Indicator: TA97, Metabolic Activation: RAT, LIVER, S-9, AROCLOR 1254 (10 OR 30%), Method: PREINCUBATION); “inactive; negative” (Test System: AMES SALMONELLA TYPHIMURIUM, Strain/Indicator: TA98, Metabolic Activation: HAMSTER, LIVER, S-9, AROCLOR 1254 (10 OR 30%), Method: PREINCUBATION). Also, the mutagenic call is “inactive; negative” under setting [2]; “inactive; negative” (Test System: AMES SALMONELLA TYPHIMURIUM, Strain/Indicator: TA98, Metabolic Activation: RAT, LIVER, S-9, AROCLOR 1254 (10 OR 30%), Method: PREINCUBATION); “inactive; negative” under setting [3]; “active; positive” under setting [4]; “inactive; negative” under setting [5]; “inactive; negative” under setting [6]. Moreover, the mutagenic call is “active; positive” under setting [7], “inactive; negative” under setting [8], “inactive; negative” under setting [9] and “inactive; negative” under setting [10].

On to `Cc1ccco1`, for which the mutagenic call runs as follows: under setting [1], “inactive; negative”; (Test System: AMES SALMONELLA TYPHIMURIUM, Strain/Indicator: TA98, Metabolic Activation: HAMSTER, LIVER, S-9, AROCLOR 1254 (10%), Method: PREINCUBATION) “inactive; negative”; (Test System: AMES SALMONELLA TYPHIMURIUM, Strain/Indicator: TA98, Metabolic Activation: HAMSTER, LIVER, S-9, AROCLOR 1254 (30%), Method: PREINCUBATION) “inactive; negative”; under setting [2], “inactive; negative”; under setting [11], “inactive; negative”; (Test System: AMES SALMONELLA TYPHIMURIUM, Strain/Indicator: TA98, Metabolic Activation: RAT, LIVER, S-9, AROCLOR 1254 (10%), Method: PREINCUBATION) “inactive; negative”. Further, the mutagenic call is “inactive; negative” (Test System: AMES SALMONELLA TYPHIMURIUM, Strain/Indicator: TA98, Metabolic Activation: RAT, LIVER, S-9, AROCLOR 1254 (30%), Method: PREINCUBATION); “inactive; negative” (Test System: AMES SALMONELLA TYPHIMURIUM, Strain/Indicator: TA98, Metabolic Activation: RAT, LIVER, S-9, AROCLOR 1254, Method: PREINCUBATION); “inactive; negative” (Test System: AMES SALMONELLA TYPHIMURIUM, Strain/Indicator: TA98, Metabolic Activation: S-9, Method: STANDARD PLATE); “inactive; negative” under setting [3]; “inactive; negative” under setting [4]; “inactive; negative” under setting [5]. Further, the mutagenic call runs as follows: under setting [12], “inactive; negative”; under setting [6], “inactive; negative”; under setting [7], “inactive; negative”; (Test System: AMES SALMONELLA TYPHIMURIUM, Strain/Indicator: TA100, Metabolic Activation: RAT, LIVER, S-9, AROCLOR 1254, Method: PREINCUBATION) “inactive; negative”; (Test System: AMES SALMONELLA TYPHIMURIUM, Strain/Indicator: TA100, Metabolic Activation: S-9, Method: STANDARD PLATE) “inactive; negative”; (Test System: AMES SALMONELLA TYPHIMURIUM, Strain/Indicator: TA102, Metabolic Activation: HAMSTER, LIVER, S-9, AROCLOR 1254 (10 OR 30%), Method: PREINCUBATION) “inactive; negative”. Also, the mutagenic call by setting is: (Test System: AMES SALMONELLA TYPHIMURIUM, Strain/Indicator: TA102, Metabolic Activation: NONE, Method: PREINCUBATION) “inactive; negative”; (Test System: AMES SALMONELLA TYPHIMURIUM, Strain/Indicator: TA102, Metabolic Activation: RAT, LIVER, S-9, AROCLOR 1254 (10%), Method: PREINCUBATION) “inactive; negative”; (Test System: AMES SALMONELLA TYPHIMURIUM, Strain/Indicator: TA102, Metabolic Activation: RAT, LIVER, S-9, AROCLOR 1254 (30%), Method: PREINCUBATION) “inactive; negative”; (Test System: AMES SALMONELLA TYPHIMURIUM, Strain/Indicator: TA102, Metabolic Activation: RAT, LIVER, S-9, AROCLOR 1254, Method: PREINCUBATION) “inactive; negative”; (Test System: AMES SALMONELLA TYPHIMURIUM, Strain/Indicator: TA104, Metabolic Activation: HAMSTER, LIVER, S-9, AROCLOR 1254 (5%), Method: PREINCUBATION) “inactive; negative”; (Test System: AMES SALMONELLA TYPHIMURIUM, Strain/Indicator: TA104, Metabolic Activation: HAMSTER, LIVER, S-9, AROCLOR 1254 (10 OR 30%), Method: PREINCUBATION) “inactive; negative”. In addition, the mutagenic call (Test System: AMES SALMONELLA TYPHIMURIUM, Strain/Indicator: TA104, Metabolic Activation: NONE, Method: PREINCUBATION) is “inactive; negative”; the mutagenic call (Test System: AMES SALMONELLA TYPHIMURIUM, Strain/Indicator: TA104, Metabolic Activation: RAT, LIVER, S-9, AROCLOR 1254 (5%), Method: PREINCUBATION) is “inactive; negative”; the mutagenic call (Test System: AMES SALMONELLA TYPHIMURIUM, Strain/Indicator: TA104, Metabolic Activation: RAT, LIVER, S-9, AROCLOR 1254 (10 OR 30%), Method: PREINCUBATION) is “inactive; negative”; the mutagenic call under setting [8] was “inactive; negative”; the mutagenic call under setting [9] was “inactive; negative”; the mutagenic call under setting [10] was “inactive; negative”.

Turning to `CC(C)(Br)C(Br)CCl` (stereo not given), the mutagenic call (Test System: AMES SALMONELLA TYPHIMURIUM, Strain/Indicator: TA100, Metabolic Activation: RAT, LIVER, MICROSOMES, PHENOBARBITAL, Method: PREINCUBATION) was “inactive; negative” and the mutagenic call (Test System: AMES SALMONELLA TYPHIMURIUM, Strain/Indicator: TA100, Metabolic Activation: RAT, LIVER, MICROSOMES, Method: PREINCUBATION) is “inactive; negative”.

For `O=C(Nc1ccccc1F)c1csc([N+](=O)[O-])c1`, the mutagenic call runs as follows: under setting [11], “active; positive”; under setting [12], “active; positive”.
